Data: ChEMBL document CHEMBL1150947, “Indole alkaloids from the tunicate Aplidium meridianum” (J Nat Prod, 1998)

Assay: Cytotoxicity against mouse LMM3 cells
Type: functional, cell-based

SMILES	IC50
Nc1nccc(-c2c[nH]c3cc(Br)cc(O)c23)n1 [MERIDIANIN B]	11.4 µM
Nc1nccc(-c2c[nH]c3ccc(Br)cc23)n1 [MERIDIANIN C]	9.3 µM
